According to ChEMBL document CHEMBL4138087, “Designing multi-targeted agents: An emerging anticancer drug discovery paradigm” (Eur J Med Chem, 2017):

Key:
A-431 [1] = test: Antiproliferative activity in human A431 Cells after 72 hrs by SRB assay; format: functional, cell-based; conditions: A-431, 72 h
A-431 [2] = test: Potency index, ratio of temozolomide IC50 to compound IC50 for human A431 Cells; format: functional
[3] = target: Proto-oncogene tyrosine-protein kinase Src (Homo sapiens, UniProt P12931); test: Inhibition of Src kinase (unknown origin)
[4] = target: Epidermal growth factor receptor (Homo sapiens, UniProt P00533); test: Inhibition of human A431 cells derived EGFR by ELISA
Epidermal growth factor receptor, sequence (P00533 whole entry): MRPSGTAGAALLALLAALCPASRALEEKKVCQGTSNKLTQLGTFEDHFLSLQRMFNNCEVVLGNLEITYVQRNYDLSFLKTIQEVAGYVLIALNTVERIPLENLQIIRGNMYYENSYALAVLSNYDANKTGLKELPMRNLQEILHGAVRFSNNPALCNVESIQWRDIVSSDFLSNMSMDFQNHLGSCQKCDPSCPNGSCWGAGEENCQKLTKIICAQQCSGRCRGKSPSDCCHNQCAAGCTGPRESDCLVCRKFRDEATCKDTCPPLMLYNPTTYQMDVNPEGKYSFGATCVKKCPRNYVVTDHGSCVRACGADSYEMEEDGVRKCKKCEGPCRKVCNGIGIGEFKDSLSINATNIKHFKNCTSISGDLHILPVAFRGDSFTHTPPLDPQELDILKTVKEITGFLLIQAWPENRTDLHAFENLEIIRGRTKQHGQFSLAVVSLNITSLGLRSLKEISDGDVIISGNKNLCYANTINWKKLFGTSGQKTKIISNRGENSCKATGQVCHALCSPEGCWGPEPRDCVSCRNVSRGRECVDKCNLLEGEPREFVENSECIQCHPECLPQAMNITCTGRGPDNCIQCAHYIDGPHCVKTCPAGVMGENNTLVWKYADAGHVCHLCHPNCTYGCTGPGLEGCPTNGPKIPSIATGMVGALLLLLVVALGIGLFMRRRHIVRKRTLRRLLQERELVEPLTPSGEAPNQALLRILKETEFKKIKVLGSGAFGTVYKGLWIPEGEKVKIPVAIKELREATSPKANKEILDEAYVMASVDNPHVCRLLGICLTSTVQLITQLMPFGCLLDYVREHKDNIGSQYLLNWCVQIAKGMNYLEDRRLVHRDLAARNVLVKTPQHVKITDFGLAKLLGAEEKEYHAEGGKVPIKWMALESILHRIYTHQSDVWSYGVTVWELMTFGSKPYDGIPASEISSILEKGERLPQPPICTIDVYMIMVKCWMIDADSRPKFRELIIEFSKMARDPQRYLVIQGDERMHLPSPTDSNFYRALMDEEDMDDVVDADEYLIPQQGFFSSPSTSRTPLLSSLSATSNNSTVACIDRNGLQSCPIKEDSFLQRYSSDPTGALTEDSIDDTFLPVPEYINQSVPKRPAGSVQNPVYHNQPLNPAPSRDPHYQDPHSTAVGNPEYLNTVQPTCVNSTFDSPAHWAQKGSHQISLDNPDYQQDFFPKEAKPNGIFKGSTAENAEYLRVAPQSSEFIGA

Proto-oncogene tyrosine-protein kinase Src, sequence (P12931 2-536 limits assumed): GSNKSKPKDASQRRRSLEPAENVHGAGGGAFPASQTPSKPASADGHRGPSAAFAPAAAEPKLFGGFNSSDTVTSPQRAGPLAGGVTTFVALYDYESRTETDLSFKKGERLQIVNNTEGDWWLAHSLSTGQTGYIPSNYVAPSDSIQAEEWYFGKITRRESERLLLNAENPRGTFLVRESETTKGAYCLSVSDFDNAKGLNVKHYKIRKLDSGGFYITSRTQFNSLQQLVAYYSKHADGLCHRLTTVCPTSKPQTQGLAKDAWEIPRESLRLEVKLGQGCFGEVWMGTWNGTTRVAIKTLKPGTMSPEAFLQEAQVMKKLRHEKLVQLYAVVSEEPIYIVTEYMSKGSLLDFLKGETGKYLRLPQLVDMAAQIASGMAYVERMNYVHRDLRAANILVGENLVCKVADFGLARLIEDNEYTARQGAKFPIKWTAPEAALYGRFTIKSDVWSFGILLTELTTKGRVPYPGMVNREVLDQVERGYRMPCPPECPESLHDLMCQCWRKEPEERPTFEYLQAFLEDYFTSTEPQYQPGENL

IC50 (A-431 [1]) [µM] | IC50 [3] [µM] | IC50 [4] [µM] | SMILES | Ratio IC50 (A-431 [2])
36 |  |  | C/N=N/Nc1ccc2ncnc(Nc3cccc(C)c3)c2c1 | 10
59 |  |  | Cc1cccc(Nc2ncnc3ccc(N)cc23)c1 | 
 | 2.9 | 0.32 | CN(CCN(C)Cc1ccc(C(=O)Nc2ccc3ncnc(Nc4cccc(Cl)c4)c3c2)cc1)CCn1nc(-c2ccc(Cl)cc2)c2c(N)ncnc21 | 
